Results published in patent EP0533925A1, “OPTICAL ISOMER OF R-FORM OF DIPHENYL ETHER DERIVATIVE AND HERBICIDE CONTAINING THE SAME AS ACTIVE INGREDIENT” (TEIJIN LIMITED, priority 1990, dated 1991).
Where a name gives a salt, the structure may show the parent alone.

What was measured:
Assay type in all cases: in vivo
Astragalus sinicus = assay: Herbicidal activity, spray of diphenyl ether with N-phosphonomethylglycine derivative (Test Examples 6 to 10); set-up: key: 0 means the state where the plants are as sound as before the application of the active compound; 1, 2, 3 and 4 mean varying degrees of the enfeebled state of the plants between 0 and 5; 1, 2, 3 and 4 mean varying degrees of the enfeebled state of the plants between 0 and 5; 1, 2, 3 and 4 mean varying degrees of the enfeebled state of the plants between 0 and 5; 1, 2, 3 and 4 mean varying degrees of the enfeebled state of the plants between 0 and 5; 5 is the state where the plants are withered or killed by application of the active compound; settings: Application 0.375 Kg/ha (117) alone
Experimental: (§1) In these examples, all parts means parts by weight, unless otherwise noted. The herbicidal activity was evaluated on a scale of 6 degrees. In other words, 0 means the state where the plants are as sound as before the application of the active compound, while 5 is the state where the plants are withered or killed by application of the active compound, and 1, 2, 3 and 4 mean varying degrees of the enfeebled state of the plants between 0 and 5.
(§2) In each run, the diphenyl ether derivatives and the N-phosphonomethylglycine derivatives shown in Table 3 (in the indicated mixing ratios) was dissolved in 16 parts by volume of a mixture of water and acetone (1 : 1 by volume; containing 0.05 % of a nonionic surfactant, Sorpol-2680) in the indicated mixing ratio, respectively, to prepare spray solutions.
(§3) The plants tested were grown in vinyl resin pots (diameter 10 cm) filled with soil in a green house for 2 to 3 weeks after germination from seeds or tubers.
(§4) The spray solution was applied to the plants so that the total volume sprayed became 4 cc/100 cm², and the herbicidal activity was examined.
(§5) The alphabetical symbols in Tables 2 and 3 represent the following plants, respectively: a: Digitaria adscendens b: Setaria viridis c: Sorghum halepense d: Chenopodium album var. centrorubrum e: Amaranthus mangostanus f: Astragalus sinicus g: Abutilon theophrosti h: Solanum nigrum i: Xanthium strumarium j: Soybean; Glycine max k: Corn; Zea mays Table 2

Corn; Zea mays = assay: as above; set-up: key: 0 means the state where the plants are as sound as before the application of the active compound; 1, 2, 3 and 4 mean varying degrees of the enfeebled state of the plants between 0 and 5; 1, 2, 3 and 4 mean varying degrees of the enfeebled state of the plants between 0 and 5; 1, 2, 3 and 4 mean varying degrees of the enfeebled state of the plants between 0 and 5; 1, 2, 3 and 4 mean varying degrees of the enfeebled state of the plants between 0 and 5; 5 is the state where the plants are withered or killed by application of the active compound; settings: Application 0.375 Kg/ha (117) alone
Experimental: as §1, §2, §3, §4, §5

Digitaria adscendens = assay: as above; set-up: key: 0 means the state where the plants are as sound as before the application of the active compound; 1, 2, 3 and 4 mean varying degrees of the enfeebled state of the plants between 0 and 5; 1, 2, 3 and 4 mean varying degrees of the enfeebled state of the plants between 0 and 5; 1, 2, 3 and 4 mean varying degrees of the enfeebled state of the plants between 0 and 5; 1, 2, 3 and 4 mean varying degrees of the enfeebled state of the plants between 0 and 5; 5 is the state where the plants are withered or killed by application of the active compound; settings: Application 0.375 Kg/ha (117) alone
Experimental: as §1, §2, §3, §4, §5

Solanum nigrum = assay: as above; set-up: key: 0 means the state where the plants are as sound as before the application of the active compound; 1, 2, 3 and 4 mean varying degrees of the enfeebled state of the plants between 0 and 5; 1, 2, 3 and 4 mean varying degrees of the enfeebled state of the plants between 0 and 5; 1, 2, 3 and 4 mean varying degrees of the enfeebled state of the plants between 0 and 5; 1, 2, 3 and 4 mean varying degrees of the enfeebled state of the plants between 0 and 5; 5 is the state where the plants are withered or killed by application of the active compound; settings: Application 0.375 Kg/ha (117) alone
Experimental: as §1, §2, §3, §4, §5

Soybean; Glycine max = assay: as above; set-up: key: 0 means the state where the plants are as sound as before the application of the active compound; 1, 2, 3 and 4 mean varying degrees of the enfeebled state of the plants between 0 and 5; 1, 2, 3 and 4 mean varying degrees of the enfeebled state of the plants between 0 and 5; 1, 2, 3 and 4 mean varying degrees of the enfeebled state of the plants between 0 and 5; 1, 2, 3 and 4 mean varying degrees of the enfeebled state of the plants between 0 and 5; 5 is the state where the plants are withered or killed by application of the active compound; settings: Application 0.375 Kg/ha (117) alone
Experimental: as §1, §2, §3, §4, §5

Xanthium strumarium = assay: as above; set-up: key: 0 means the state where the plants are as sound as before the application of the active compound; 1, 2, 3 and 4 mean varying degrees of the enfeebled state of the plants between 0 and 5; 1, 2, 3 and 4 mean varying degrees of the enfeebled state of the plants between 0 and 5; 1, 2, 3 and 4 mean varying degrees of the enfeebled state of the plants between 0 and 5; 1, 2, 3 and 4 mean varying degrees of the enfeebled state of the plants between 0 and 5; 5 is the state where the plants are withered or killed by application of the active compound; settings: Application 0.375 Kg/ha (117) alone
Experimental: as §1, §2, §3, §4, §5

[1] = test system: Broad-leaved Plants (d, e, f, g, h, i, j); assay: Average withering rate, single and mixed solutions (Test Example 11); set-up: unit: %; settings: 3 weeks
Description: as §5
(§6) In each run, the compound (1) according to the invention only or the N-phosphonomethylglycine derivatives (117) only or the mixture thereof were used as in the Test Example 1 to prepare single solutions and mixed solutions by using various amounts of each components. Each of the preparations were applied to the plants as in Test Example 1 and the cultivation was continued for 3 weeks without additive application thereafter.
(§7) The results were analyzed by Tammes's method [Tammes, P.M.L.: Neth. J. Plant Path., 70, 73-80 (1964)] which was cited in "Zasso Kenkyuu" (in Japanese) (Weed Studies) 14, 12-18 […] and shown in Fig. 1 and Fig. 2.
(§8) Fig. 1 represents the average withering rate of 4 kinds of narrow-leaved plants (a, b, c, and k), while Fig. 2 gives withering rate of 7 kinds of broad-leaved plants (d, e, f, g, h, i j). As these figures show clearly, the curve binding the points of 95 % effect is inside the one of the synergistic effect, thus it can be concluded that the mixed preparation has synergistic effect.

[2] = test system: Narrow-leaved Plants (a, b, c, k); assay: as above; set-up: unit: %; settings: 3 weeks
Description: as §5, §6, §7, §8

[3] = Compound (1) 0 kg a.i./ha, Compound (117) 0.094 kg a.i./ha
[4] = Compound (1) 0 kg a.i./ha, Compound (117) 0.188 kg a.i./ha
[5] = Compound (1) 0 kg a.i./ha, Compound (117) 0.375 kg a.i./ha
[6] = Compound (1) 0 kg a.i./ha, Compound (117) 0.750 kg a.i./ha
[7] = Compound (1) 0.008 kg a.i./ha, Compound (117) 0 kg a.i./ha
[8] = Compound (1) 0.016 kg a.i./ha, Compound (117) 0 kg a.i./ha
[9] = Compound (1) 0.031 kg a.i./ha, Compound (117) 0 kg a.i./ha

O=C(O)CNCP(=O)(O)O [Compound (117), N-phosphonomethylglycine isopropylammonium salt]
herbicidal activity, Plants f (Astragalus sinicus; 3 days after treatment): 0
herbicidal activity, Plants f (Astragalus sinicus; 7 days after treatment): 0
herbicidal activity, Plants f (Astragalus sinicus; 14 days after treatment): 0
herbicidal activity, Plants k (Corn; Zea mays; 3 days after treatment): 0
herbicidal activity, Plants k (Corn; Zea mays; 7 days after treatment): 0
herbicidal activity, Plants k (Corn; Zea mays; 14 days after treatment): 0
herbicidal activity, Plants a (Digitaria adscendens; 3 days after treatment): 3
herbicidal activity, Plants a (Digitaria adscendens; 7 days after treatment): 1
herbicidal activity, Plants a (Digitaria adscendens; 14 days after treatment): 3
herbicidal activity, Plants h (Solanum nigrum; 3 days after treatment): 0
herbicidal activity, Plants h (Solanum nigrum; 7 days after treatment): 0
herbicidal activity, Plants h (Solanum nigrum; 14 days after treatment): 0
herbicidal activity, Plants j (Soybean; Glycine max; 3 days after treatment): 0
herbicidal activity, Plants j (Soybean; Glycine max; 7 days after treatment): 0
herbicidal activity, Plants j (Soybean; Glycine max; 14 days after treatment): 0
herbicidal activity, Plants i (Xanthium strumarium; 3 days after treatment): 0
herbicidal activity, Plants i (Xanthium strumarium; 7 days after treatment): 0
herbicidal activity, Plants i (Xanthium strumarium; 14 days after treatment): 1
Average Withering Rates of Broad-leaved Plants (d, e, f, g, h, i, j) [1, 3]: 4
Average Withering Rates of Broad-leaved Plants (d, e, f, g, h, i, j) [1, 4]: 36
Average Withering Rates of Broad-leaved Plants (d, e, f, g, h, i, j) [1, 5]: 55
Average Withering Rates of Broad-leaved Plants (d, e, f, g, h, i, j) [1, 6]: 80
Average Withering Rates of Narrow-leaved Plants (a, b, c, k) [2, 3]: 50
Average Withering Rates of Narrow-leaved Plants (a, b, c, k) [2, 4]: 87
Average Withering Rates of Narrow-leaved Plants (a, b, c, k) [2, 5]: 87
Average Withering Rates of Narrow-leaved Plants (a, b, c, k) [2, 6]: 95

COC(=O)C(C)Oc1cc(Oc2ccc(C(F)(F)F)cc2Cl)ccc1C#N (stereo not drawn) [Compound (1), Methyl α-[2-cyano-5-(2-chloro-4-trifluoromethylphenoxy)phenoxy]propionate]
Average Withering Rates of Broad-leaved Plants (d, e, f, g, h, i, j) [1, 7]: 80
Average Withering Rates of Broad-leaved Plants (d, e, f, g, h, i, j) [1, 8]: 80
Average Withering Rates of Broad-leaved Plants (d, e, f, g, h, i, j) [1, 9]: 96
Average Withering Rates of Narrow-leaved Plants (a, b, c, k) [2, 7]: 33
Average Withering Rates of Narrow-leaved Plants (a, b, c, k) [2, 8]: 47
Average Withering Rates of Narrow-leaved Plants (a, b, c, k) [2, 9]: 80
Average Withering Rates of Narrow-leaved Plants (a, b, c, k) ([2]; Compound (1) 0.063 kg a.i./ha, Compound (117) 0 kg a.i./ha): 93
